System: LG0703-F948-PDC complex spheroid viability
Test: Anticancer human tumor LG0703-F948-PDC patient-derived lung adenocarcinoma cell line growth inhibition
Conditions: for IC50: curve of first compound; for viability, T/C: stronger effect = lower value; active = viability on the fitted dose curve at most 10% of control; inactive = the rest
Procedure, shortened: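 Multicellular complex spheroids of tumor cells with human endothelial cells (HUVEC) and mesenchymal stem cells; the LSD1 inhibitor iadademstat was combined with standard-of-care or investigational agents. Top concentration at or near clinical Cmax, half-log dilutions; final DMSO ≤0.25%.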

[1] = second compound 0.1 µM, first compound 0.00316 µM
[2] = second compound 0.1 µM, first compound 0.01 µM
[3] = second compound 0.1 µM, first compound 0.0316 µM
[4] = second compound 0.1 µM, first compound 0.1 µM
[5] = second compound 0.316 µM, first compound 0.00316 µM
[6] = second compound 0.316 µM, first compound 0.01 µM
[7] = second compound 0.316 µM, first compound 0.0316 µM
[8] = second compound 0.316 µM, first compound 0.1 µM
[9] = second compound 1 µM, first compound 0.00316 µM
[10] = second compound 1 µM, first compound 0.01 µM
[11] = second compound 1 µM, first compound 0.0316 µM
[12] = second compound 1 µM, first compound 0.1 µM
[13] = second compound 3.16 µM, first compound 0.00316 µM
[14] = second compound 3.16 µM, first compound 0.01 µM
[15] = second compound 3.16 µM, first compound 0.0316 µM
[16] = second compound 3.16 µM, first compound 0.1 µM
[17] = second compound 10 µM, first compound 0.00316 µM
[18] = second compound 10 µM, first compound 0.01 µM
[19] = second compound 10 µM, first compound 0.0316 µM
[20] = second compound 10 µM, first compound 0.1 µM
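Note: spheroids exposed to agents for seven days before readout.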
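Throughout, for viability, T/C: 100% = DMSO vehicle control wells as normalization base.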

COc1cc(Nc2ncc3c(n2)-c2ccc(Cl)cc2C(c2c(F)cccc2OC)=NC3)ccc1C(=O)O + NC1CCC(NC2CC2c2ccccc2)CC1
201 nM: IC50 (second compound 1 µM)
inactive: viability, T/C [1] 87.8% | viability, T/C [2] 80.6% | viability, T/C [3] 81.6% | viability, T/C [4] 73.5% | viability, T/C (second compound 0.1 µM, first compound 0.316 µM) 38.9% | viability, T/C [5] 96.4% | viability, T/C [6] 86.7% | viability, T/C [7] 79.8% | viability, T/C [8] 61.6% | viability, T/C (second compound 0.316 µM, first compound 0.316 µM) 36.6% | viability, T/C [9] 104% | viability, T/C [10] 87.6% | viability, T/C [11] 91.4% | viability, T/C [12] 71% | viability, T/C (second compound 1 µM, first compound 0.316 µM) 36.2% | viability, T/C [13] 110% | viability, T/C [14] 94.1% | viability, T/C [15] 94.4% | viability, T/C [16] 83.7% | viability, T/C (second compound 3.16 µM, first compound 0.316 µM) 36.9% | viability, T/C [17] 108% | viability, T/C [18] 85.3% | viability, T/C [19] 89.9% | viability, T/C [20] 83.7% | viability, T/C (second compound 10 µM, first compound 0.316 µM) 37.1%
active: viability, T/C (second compound 0.1 µM, first compound 1 µM) 6.3% | viability, T/C (second compound 0.316 µM, first compound 1 µM) 5.23% | viability, T/C (second compound 1 µM, first compound 1 µM) 5.15% | viability, T/C (second compound 3.16 µM, first compound 1 µM) 4.29% | viability, T/C (second compound 10 µM, first compound 1 µM) 2.91%
218 nM: IC50 (second compound 0.1 µM)
229 nM: IC50 (second compound 3.16 µM) | IC50 (second compound 10 µM)
172 nM: IC50 (second compound 0.316 µM)

Cn1ncnc1C1c2n[nH]c(=O)c3cc(F)cc(c23)NC1c1ccc(F)cc1 (stereo not given) + NC1CCC(NC2CC2c2ccccc2)CC1
inactive: viability, T/C (second compound 0.1 µM, first compound 0.000316 µM) 102% | viability, T/C (second compound 0.1 µM, first compound 0.001 µM) 96.2% | viability, T/C [1] 93.1% | viability, T/C [2] 104% | viability, T/C [3] 88.4% | viability, T/C [4] 97.8% | viability, T/C (second compound 0.316 µM, first compound 0.000316 µM) 111% | viability, T/C (second compound 0.316 µM, first compound 0.001 µM) 108% | viability, T/C [5] 95.8% | viability, T/C [6] 113% | viability, T/C [7] 93.1% | viability, T/C [8] 96.9% | viability, T/C (second compound 1 µM, first compound 0.000316 µM) 113% | viability, T/C (second compound 1 µM, first compound 0.001 µM) 128% | viability, T/C [9] 116% | viability, T/C [10] 111% | viability, T/C [11] 115% | viability, T/C [12] 97.7% | viability, T/C (second compound 3.16 µM, first compound 0.000316 µM) 122% | viability, T/C (second compound 3.16 µM, first compound 0.001 µM) 133% | viability, T/C [13] 115% | viability, T/C [14] 123% | viability, T/C [15] 117% | viability, T/C [16] 122% | viability, T/C (second compound 10 µM, first compound 0.000316 µM) 108% | viability, T/C (second compound 10 µM, first compound 0.001 µM) 123% | viability, T/C [17] 115% | viability, T/C [18] 117% | viability, T/C [19] 111% | viability, T/C [20] 121%
> 100 nM: IC50 (second compound 0.1 µM) | IC50 (second compound 0.316 µM) | IC50 (second compound 1 µM) | IC50 (second compound 3.16 µM) | IC50 (second compound 10 µM)

NS(=O)(=O)OCC1CC(n2ccc3c(NC4CCc5ccccc54)ncnc32)CC1O (stereo not given) + NC1CCC(NC2CC2c2ccccc2)CC1
467 nM: IC50 (second compound 10 µM)
546 nM: IC50 (second compound 0.1 µM)
670 nM: IC50 (second compound 1 µM)
633 nM: IC50 (second compound 3.16 µM)
inactive: viability, T/C (second compound 0.1 µM, first compound 0.00949 µM) 106% | viability, T/C (second compound 0.1 µM, first compound 0.03 µM) 111% | viability, T/C (second compound 0.1 µM, first compound 0.0949 µM) 106% | viability, T/C (second compound 0.1 µM, first compound 0.3 µM) 70.7% | viability, T/C (second compound 0.1 µM, first compound 0.949 µM) 31.4% | viability, T/C (second compound 0.1 µM, first compound 3 µM) 19.1% | viability, T/C (second compound 0.316 µM, first compound 0.00949 µM) 111% | viability, T/C (second compound 0.316 µM, first compound 0.03 µM) 123% | viability, T/C (second compound 0.316 µM, first compound 0.0949 µM) 109% | viability, T/C (second compound 0.316 µM, first compound 0.3 µM) 80.5% | viability, T/C (second compound 0.316 µM, first compound 0.949 µM) 30.7% | viability, T/C (second compound 0.316 µM, first compound 3 µM) 17.1% | viability, T/C (second compound 1 µM, first compound 0.00949 µM) 113% | viability, T/C (second compound 1 µM, first compound 0.03 µM) 144% | viability, T/C (second compound 1 µM, first compound 0.0949 µM) 105% | viability, T/C (second compound 1 µM, first compound 0.3 µM) 83.3% | viability, T/C (second compound 1 µM, first compound 0.949 µM) 35.9% | viability, T/C (second compound 1 µM, first compound 3 µM) 16.2% | viability, T/C (second compound 3.16 µM, first compound 0.00949 µM) 124% | viability, T/C (second compound 3.16 µM, first compound 0.03 µM) 141% | viability, T/C (second compound 3.16 µM, first compound 0.0949 µM) 112% | viability, T/C (second compound 3.16 µM, first compound 0.3 µM) 82.5% | viability, T/C (second compound 3.16 µM, first compound 0.949 µM) 32.4% | viability, T/C (second compound 3.16 µM, first compound 3 µM) 13.6% | viability, T/C (second compound 10 µM, first compound 0.00949 µM) 124% | viability, T/C (second compound 10 µM, first compound 0.03 µM) 124% | viability, T/C (second compound 10 µM, first compound 0.0949 µM) 124% | viability, T/C (second compound 10 µM, first compound 0.3 µM) 69.3% | viability, T/C (second compound 10 µM, first compound 0.949 µM) 20.4% | viability, T/C (second compound 10 µM, first compound 3 µM) 8.21%
607 nM: IC50 (second compound 0.316 µM)

Source: PubChem BioAssay AID1918952 (Molecular Pharmacology Branch, DTP, NCI, 2023)
